Reference: patent US7273863B1, “Benzophenones as inhibitors of reverse transcriptase” (SmithKline Beecham Corporation, priority 1999, dated 2007)

Assays:
[1] = system: NEV-R; experiment: MT4 cell assay, antiviral HIV activity (propidium iodide); assay type: cell-based; settings: Human immunodeficiency virus 1, MT4, read-out: IC50 (nM) Range
[2] = system: WTRVA; experiment: HeLa cell assay (HIV-LTR β-galactosidase reporter); assay type: cell-based, HIV-1; settings: Human immunodeficiency virus 1, Virus Type WTRVA, read-out: IC50 (nM) Range
Method: (§1) The HeLa cell assay was performed according to a modification of Kimpton J. and Emerman M., Detection of replication-competent and pseudotyped human immunodeficiency virus with a sensitive cell line on the basis of activation of an integrated β-galactosidase gene, J. Virol. 66:2232-2239 (1992), in which HIV-1 infection is detected by the activation of an HIV-LTR driven β-galactosidase reporter that is integrated into the genome of a CD4^+ HeLa cell line. Quantitation of β-galactosidase is achieved by measuring the activation of a chemiluminescent substrate (Tropix). The concentration of each compound required to inhibit 50% (IC50) of the HIV-1 induced β-galactosidase signal, relative to untreated controls, was determined for each isogenic, recombinant virus.
(§2) HeLa-CD4-LTR-β-gal cells were obtained from the NIH AIDS Research and Reference Reagent Program. Cells were propagated in DMEM containing 10% fetal bovine serum, 0.2 mg/ml geneticin and 0.1 mg/ml hygromycin B. Cells were routinely split by trypsinization when confluency reached 80% (approximately every 2 to 3 days).
(§3) DNA encoding the HIV-1 reverse transcriptase was subcloned from a M13 phage into a general shuttle vector, pBCSK+, as a ˜1.65 kbp EcoRI/HindIII ended DNA fragment. The HIV DNA insert of the resulting plasmid, pRT2, was completely sequenced on both strands prior to use in site directed mutagenesis experiments. Specific amino acid replacements were made using Stratagene Quick Change reagents and mutagenic oligonucleotides from Oligos. Following mutagenesis, the entire mutant RT coding sequence was verified by sequencing both DNA strands.
(§4) Mutant HIV-1 strains were isolated by a modified Recombinant Virus Assay (Kellam P. and Larder B., Recombinant virus assay: a rapid, phenotypic assay for assessment of drug susceptibility of human immunodeficiency virus type 1 isolates, Antimicrobial Agents and Chemotherapy, 38:23-30, 1994). 1×10^7 Jurkat T-cells (maintained in RPMI containing 10% fetal bovine serum, split 1:5 every 5 to 6 days) were co-transfected with EcoRI/HindIII digested mutant RT plasmid and Bst EII-digested HIV-1HXB2ΔRT DNA in the presence of DMRIE-C transfection reagent (Gibco) according to supplier's recommended protocol. Each mutant RT coding sequence was crossed into the RT-deleted HIV-1 viral DNA backbone by in vivo homologous recombination. Transfected cell cultures were expanded and monitored until syncitia formation and CPE were extensive. Virus was harvested by clear spin of the culture supernatants and frozen at −80 C as primary stock. Recombinant progeny virus was sequenced in the RT region to confirm the mutant genotype. Virus stocks were further expanded by infection of Jurkat cells, harvested and stored as frozen aliquots. Stocks were titered in HeLa MAGI cells for assay.
(§5) The HIV-1HXB2 mutants were titered in the HeLa MAGI assay system to determine the relative light units (RLU) per ml, a measure of infectivity relevant for this assay system. Virus stocks were diluted in a 2-fold series into DMEM containing 10% fetal bovine serum plus 20 ug/ml DEAE-dextran and assayed as described in the Experimental Protocol section, below.
(§6) 96-well microtiter plate(s) (Costar #3598) were seeded with 3×10^3 HeLa-CD4-LTR-β-gal in 100 μl DMEM containing 10% fetal bovine serum. Plates were placed in a 37° C., 5% CO2 humidified incubator overnight. The following day, mutant virus stocks were thawed in a room temperature water bath and diluted into DMEM containing 10% fetal bovine serum and 20 μg/ml DEAE-dextran to achieve an input of 1500 to 2000 RLU/ml. All media was removed with an 8 channel manifold aspirator and 35 μl (50 to 70 total RLUs) of diluted virus was added to each well for virus adsorption. Plates were placed in a 37° C., 5% CO2 humidified incubator for 1.5 to 2 hours.
(§7) Compound titration plates were prepared at 1.35× final concentration during the virus adsorption period. […]

[3] = system: isogenic HIV-1 RT mutant virus G190A; experiment: HeLa cell assay (HIV-LTR β-galactosidase reporter); assay type: cell-based; settings: Human immunodeficiency virus 1, HeLa, read-out: IC50 (nM) Range
Method: as §1, §2, §3, §4, §5, §6, §7

[4] = system: isogenic HIV-1 RT mutant virus K103N/G190A; experiment: HeLa cell assay (HIV-LTR β-galactosidase reporter); assay type: cell-based; settings: Human immunodeficiency virus 1, HeLa, read-out: IC50 (nM) Range
Method: as §1, §2, §3, §4, §5, §6, §7

[5] = system: isogenic HIV-1 RT mutant virus K103N/P225H; experiment: HeLa cell assay (HIV-LTR β-galactosidase reporter); assay type: cell-based; settings: Human immunodeficiency virus 1, HeLa, read-out: IC50 (nM) Range
Method: as §1, §2, §3, §4, §5, §6, §7

[6] = system: isogenic HIV-1 RT mutant virus K103N/V108I; experiment: HeLa cell assay (HIV-LTR β-galactosidase reporter); assay type: cell-based; settings: Human immunodeficiency virus 1, HeLa, read-out: IC50 (nM) Range
Method: as §1, §2, §3, §4, §5, §6, §7

[7] = system: isogenic HIV-1 RT mutant virus K103N/Y181C; experiment: HeLa cell assay (HIV-LTR β-galactosidase reporter); assay type: cell-based; settings: Human immunodeficiency virus 1, HeLa, read-out: IC50 (nM) Range
Method: as §1, §2, §3, §4, §5, §6, §7

[8] = system: isogenic HIV-1 RT mutant virus K103N; experiment: HeLa cell assay (HIV-LTR β-galactosidase reporter); assay type: cell-based; settings: Human immunodeficiency virus 1, HeLa, read-out: IC50 (nM) Range
Method: as §1, §2, §3, §4, §5, §6, §7

[9] = system: isogenic HIV-1 RT mutant virus L100I; experiment: HeLa cell assay (HIV-LTR β-galactosidase reporter); assay type: cell-based; settings: Human immunodeficiency virus 1, HeLa, read-out: IC50 (nM) Range
Method: as §1, §2, §3, §4, §5, §6, §7

[10] = system: isogenic HIV-1 RT mutant virus P225H; experiment: HeLa cell assay (HIV-LTR β-galactosidase reporter); assay type: cell-based; settings: Human immunodeficiency virus 1, HeLa, read-out: IC50 (nM) Range
Method: as §1, §2, §3, §4, §5, §6, §7

[11] = system: isogenic HIV-1 RT mutant virus P236L; experiment: HeLa cell assay (HIV-LTR β-galactosidase reporter); assay type: cell-based; settings: Human immunodeficiency virus 1, HeLa, read-out: IC50 (nM) Range
Method: as §1, §2, §3, §4, §5, §6, §7

[12] = system: isogenic HIV-1 RT mutant virus V106A/Y181C; experiment: HeLa cell assay (HIV-LTR β-galactosidase reporter); assay type: cell-based; settings: Human immunodeficiency virus 1, HeLa, read-out: IC50 (nM) Range
Method: as §1, §2, §3, §4, §5, §6, §7

[13] = system: isogenic HIV-1 RT mutant virus V106I/Y181C; experiment: HeLa cell assay (HIV-LTR β-galactosidase reporter); assay type: cell-based; settings: Human immunodeficiency virus 1, HeLa, read-out: IC50 (nM) Range
Method: as §1, §2, §3, §4, §5, §6, §7

[14] = system: isogenic HIV-1 RT mutant virus V106I; experiment: HeLa cell assay (HIV-LTR β-galactosidase reporter); assay type: cell-based; settings: Human immunodeficiency virus 1, HeLa, read-out: IC50 (nM) Range
Method: as §1, §2, §3, §4, §5, §6, §7

[15] = system: isogenic HIV-1 RT mutant virus V108I/Y181C; experiment: HeLa cell assay (HIV-LTR β-galactosidase reporter); assay type: cell-based; settings: Human immunodeficiency virus 1, HeLa, read-out: IC50 (nM) Range
Method: as §1, §2, §3, §4, §5, §6, §7

[16] = system: isogenic HIV-1 RT mutant virus V108I; experiment: HeLa cell assay (HIV-LTR β-galactosidase reporter); assay type: cell-based; settings: Human immunodeficiency virus 1, HeLa, read-out: IC50 (nM) Range
Method: as §1, §2, §3, §4, §5, §6, §7

[17] = system: isogenic HIV-1 RT mutant virus Y181C; experiment: HeLa cell assay (HIV-LTR β-galactosidase reporter); assay type: cell-based; settings: Human immunodeficiency virus 1, HeLa, read-out: IC50 (nM) Range
Method: as §1, §2, §3, §4, §5, §6, §7

| SMILES | IC50 [1] [nM] | IC50 [2] [nM] | IC50 [3] [nM] | IC50 [4] [nM] | IC50 [5] [nM] | IC50 [6] [nM] | IC50 [7] [nM] | IC50 [8] [nM] | IC50 [9] [nM] | IC50 [10] [nM] | IC50 [11] [nM] | IC50 [12] [nM] | IC50 [13] [nM] | IC50 [14] [nM] | IC50 [15] [nM] | IC50 [16] [nM] | IC50 [17] [nM] |
| --- | --- | --- | --- | --- | --- | --- | --- | --- | --- | --- | --- | --- | --- | --- | --- | --- | --- |
| CCc1cc(C#N)cc(C(=O)c2cc(Cl)ccc2OCC(=O)Nc2ccc(S(N)(=O)=O)cc2C)c1 [Compound 498] | < 10 | < 10 | < 10 | < 10 | < 10 | < 10 | < 10 | < 10 | < 10 | < 10 | < 10 | < 10 | 11 to 100 | < 10 | < 10 | < 10 | < 10 |
| Cc1cc(S(N)(=O)=O)ccc1NC(=O)COc1ccc(Cl)cc1C(=O)c1cc(Cl)cc(C#N)c1 [Compound 475] | < 10 | < 10 | < 10 | < 10 | < 10 | < 10 | < 10 | < 10 | < 10 | < 10 | < 10 | < 10 | 11 to 100 | < 10 | < 10 | < 10 | < 10 |
| Cc1cc(S(N)(=O)=O)ccc1NC(=O)COc1ccc(Cl)cc1C(=O)c1cc(F)cc(C#N)c1 [Compound 491] | < 10 | < 10 | < 10 | 11 to 100 | < 10 | < 10 | < 10 | < 10 | < 10 | < 10 | < 10 | < 10 | 11 to 100 | < 10 | < 10 | < 10 | < 10 |
| Cc1cc2nc[nH]c2cc1NC(=O)COc1ccc(Cl)cc1C(=O)c1cc(F)cc(C(F)(F)F)c1 [Compound 239] | < 10 | < 10 | < 10 | 11 to 100 | < 10 | < 10 | 11 to 100 | < 10 | < 10 | < 10 | < 10 | 101 to 1000 | < 10 | < 10 | < 10 | < 10 | < 10 |
